Source: patent US12171840B2, “Anti-mesothelin antibody and antibody drug conjugate thereof” (Remegen, Ltd., priority 2018, dated 2024)
Where “and” joins values, the source holds several entries; their conditions need not be identical. Equal values may be shown once. Read-outs that look alike come from different tables or passages of the source. Starred links: 1 amine or outer side, 2 acyl side, 3 side chain; linkers in the order of their positions; H or OH if unused. Non-standard residues stand in square brackets, D forms with d. Residues, ends and D or L forms follow the SMILES beside them. *: point of attachment. Dolaproine = CO[C@@H]([C@@H]1CCCN1)[C@@H](C)C(=O)O; Hexanoyl(6-maleimido) = O=C1C=CC(=O)N1CCCCCC(=O)*; Dil = CC[C@H](C)[C@H](NC)[C@@H](CC(=O)O)OC; PABC = O=C(OCc1ccc(N[*:1])cc1)[*:2]; Doe = c1ccc(C[C@H](N*)c2nccs2)cc1; X1 = C[C@@H](N*)[C@@H](O)c1ccccc1; Cit = NC(=O)NCCC[C@H](N)C(=O)O; NMeV = CN[C@H](C(=O)O)C(C)C

Key:
Oval-Citar-3-MSLN cells = assay: Cytotoxic activity (CCK-8) in Oval-Citar-3 cells with high expression of MSLN; details: for IC50: read-out: cytotoxicity IC50
Protocol: Oval-Citar-3-MSLN cells in good growth state were added to a 96-well cell culture plates (5×10^4 cells/mL. 100 μL/well), and incubated overnight at 37° C. in a CO2 incubator. […] After dilution, they were added to 96 plates (100 μL/well), and a blank group (equal volume of medium without drug) and three control groups were set, and incubation was carried out in a CO2 constant temperature incubator at 37° C. for 72 hours. A medium (without FBS) that contained 10 μL of CCK-8 at a dose of 100 μL/well was added, incubated at 37° C. for 2 to 4 hours in a CO2 incubator, and the OD values at 450 nm were read with a microplate reader. The inhibition rate was calculated by the following formula: IR %=(ODblank−ODdrug)×100/ODblank.

[1] = test system: Oval-Citar-3 human ovarian cancer bearing mouse model with high expression of MSLN; assay: Anti-tumor experiment of RC88-Py-MAA-Val-Cit-PAB-MMAE, dose groups and controls, in Oval-Citar-3-MSLN tumor-bearing nude mice (Example 6); assay type: in vivo
Protocol: Oval-Citar-3-MSLN cells (2×10^6) in normal growth state were subcutaneously inoculated in nude mice (Changzhou Cavans Laboratory Animal Co., Ltd., certificate number: 201611240, license number: SCXK (Su) 2011-0003), and the animals were randomized after the tumor volume grew to approximately 100-400 mm^3. […] 3 times in total (PTX was administered twice a week, 6 times in total), and the negative control group was administrated with the equal amount of physiological saline at the same time.

[2] = OVal-CitAR3-MSLN, 72 hours, CCK-8, N = 3
[3] = 10 mg/kg twice a week, 6 times in total, after 21 days of administration

CC[C@H](C)[C@@H]([C@@H](CC(=O)N1CCC[C@H]1[C@H](OC)[C@@H](C)C(=O)N[C@@H](Cc1ccccc1)c1nccs1)OC)N(C)C(=O)[C@@H](NC(=O)[C@@H](NC)C(C)C)C(C)C [MMAD, monomethyl auristatin D] (H-[NMeV]V[Dil][Dolaproine]-Doe)
Inhibition rate, % (maximum inhibition rate) (Oval-Citar-3-MSLN cells; [2]): 98.1 ± 2.4%
cytotoxicity IC50 (Oval-Citar-3-MSLN cells; [2]): 0.1169 ± 0.0074 ng/mL
IC50 (Oval-Citar-3-MSLN cells; [2]): 0.152 ± 0.01 nM

CC[C@H](C)[C@@H]([C@@H](CC(=O)N1CCC[C@H]1[C@H](OC)[C@@H](C)C(=O)N[C@H](C)[C@@H](O)c1ccccc1)OC)N(C)C(=O)[C@@H](NC(=O)[C@@H](NC)C(C)C)C(C)C [MMAE, monomethyl auristatin E] (H-[NMeV]V[Dil][Dolaproine]-X1)
difference from the control (saline) group ([1]; 0.06 mg/kg, once a week, 3 times in total, P>0.05): no significant difference
Inhibition rate, % (maximum inhibition rate) (Oval-Citar-3-MSLN cells; [2]): 96.9 ± 0.7%
cytotoxicity IC50 (Oval-Citar-3-MSLN cells; [2]): 0.3199 ± 0.0284 ng/mL
IC50 (Oval-Citar-3-MSLN cells; [2]): 0.446 ± 0.0395 nM

CC[C@H](C)[C@@H]([C@@H](CC(=O)N1CCC[C@H]1[C@H](OC)[C@@H](C)C(=O)N[C@H](C)[C@@H](O)c1ccccc1)OC)N(C)C(=O)[C@@H](NC(=O)[C@H](C(C)C)N(C)C(=O)OCc1ccc(NC(=O)[C@H](CCCNC(N)=O)NC(=O)[C@@H](NC(=O)CCCCCN2C(=O)C=CC2=O)C(C)C)cc1)C(C)C [Mc-Val-Cit-PAB-MMAE] ({Hexanoyl(6-maleimido)}-V[Cit][PABC][NMeV]V[Dil][Dolaproine]-X1)
Inhibition rate, % (maximum inhibition rate) (Oval-Citar-3-MSLN cells; [2]): 94.5 ± 0.8%
cytotoxicity IC50 (Oval-Citar-3-MSLN cells; [2]): ~663.4 ng/mL

CC(=O)O[C@H]1C(=O)[C@@]2(C)[C@H]([C@H](OC(=O)c3ccccc3)[C@]3(O)C[C@H](OC(=O)[C@H](O)[C@@H](NC(=O)c4ccccc4)c4ccccc4)C(C)=C1C3(C)C)[C@]1(OC(C)=O)CO[C@@H]1C[C@@H]2O [PTX, Paclitaxel]
T/C [1, 3]: < 40%
tumors completely eliminated (CR) [1, 3]: tumors were completely eliminated (CR) in two tumor-bearing mice
tumor volume and RTV versus the control (saline) group ([1]; 10 mg/kg twice a week, 6 times in total, after 21 days, P<0.05): statistically different
IC50 (Oval-Citar-3-MSLN cells; Homo sapiens, 72 h): 0.00109 µg/mL and 1.27 nM
Inhibition rate, % (maximum inhibition rate) (Oval-Citar-3-MSLN cells; [2]): 92.8 ± 1.5%
